This is an account of results in ChEMBL document CHEMBL1201862, “PubChem BioAssay data set” (2004).

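All cell lines were grown in 96-well plates and treated with compound for 48 hours. Here, GI50 denotes the concentration required for 50% inhibition of growth.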 Activity calls are given as the source filed them. Cut-off read from the data, not from the text of the source: active = GI50 up to about 1.1 µM and inactive = higher. Where only a bound is given, the exact number is not on record here.

Among the test systems are SK-OV-3; UO-31; A549; OVCAR-5; OVCAR-3; SF-268; OVCAR-8; HCC 2998; MDA-MB-231; PC-3; DU-145; T47D; Malme-3M; HCT-116; MDA-N; COLO 205; SN12C; CAKI-1; M14; NCI/ADR-RES.
Test in all cases: NCI tumour cell line growth inhibition, 48 h

On to `CCNC(=O)Nc1cccc(C)n1`, for which the GI50 with SK-OV-3, with UO-31, with A549, in the test on OVCAR-5, in the test with OVCAR-3 and in the test on SF-268 was > 100 µM (inactive) each time. Moreover, the GI50 in the test with OVCAR-8, in the test on HCC 2998, in the test with MDA-MB-231, in the test with PC-3, with DU-145 and in the test on T47D was > 100 µM (inactive) throughout. Besides, the GI50 in the test on Malme-3M, in the test with HCT-116, with MDA-N, in the test on COLO 205, with SN12C and in the test on CAKI-1 was > 100 µM (inactive) in each case. In addition, the GI50 in the test with M14 was > 100 µM (inactive).
Turning to `O=C(O)/C(Cl)=C(/Cl)C(=O)Nc1cccc(Cl)c1`, the GI50 in the test on SK-OV-3 was 15.7 µM (inactive); in the test on UO-31, 18.5 µM (inactive); with A549, 48.1 µM (inactive); in the test on OVCAR-5, 19.7 µM (inactive); in the test with OVCAR-3, 16.7 µM (inactive); in the test with SF-268, 22.4 µM (inactive). Further, the GI50 in the test on OVCAR-8 is 18.7 µM (inactive); in the test on HCC 2998, 17.5 µM (inactive); in the test with MDA-MB-231 it was 14.6 µM (inactive); with PC-3 it was 18.5 µM (inactive); in the test on DU-145 it was > 100 µM (inactive); with T47D it was 22 µM (inactive). For the same compound, the GI50 in the test on Malme-3M was 16.9 µM (inactive); with HCT-116, 16.2 µM (inactive); in the test on MDA-N, 17.3 µM (inactive); in the test with COLO 205 it was 10.2 µM (inactive); in the test with SN12C, 20 µM (inactive); in the test with CAKI-1, 7.33 µM (inactive). Moreover, the GI50 with M14 was 18.6 µM (inactive).
For `CC1CC/C(=C\c2ccc(N(C)C)cc2)C(=O)/C1=C/c1ccc(N(C)C)cc1` (configuration not stated), the GI50 in the test with SK-OV-3, in the test on UO-31, with A549, in the test with OVCAR-5, in the test on OVCAR-3 and in the test on OVCAR-8 was > 100 µM (inactive) in each case. Besides, the GI50 with HCC 2998 was > 100 µM (inactive); with MDA-MB-231, > 100 µM (inactive); in the test on PC-3 it was > 100 µM (inactive); in the test on NCI/ADR-RES, > 100 µM (inactive); in the test with T47D, > 100 µM (inactive); with Malme-3M, 0.228 µM (active). Besides, the GI50 with HCT-116, with MDA-N, in the test on COLO 205, in the test on SN12C, with CAKI-1 and in the test with M14 was > 100 µM (inactive) throughout.
As for `[O-][n+]1c2cccc(O)c2[n+]([O-])c2cccc(O)c21`, the GI50 was 45.7 µM (inactive) with SK-OV-3; > 100 µM (inactive) in the test on UO-31; 84.7 µM (inactive) in the test on A549; > 100 µM (inactive) in the test with OVCAR-5; 29.2 µM (inactive) with OVCAR-3; 31.8 µM (inactive) with SF-268. The GI50 in the test on OVCAR-8 is 25.9 µM (inactive); in the test with PC-3 it was 53.1 µM (inactive); with NCI/ADR-RES, 70.8 µM (inactive); with DU-145, > 100 µM (inactive); in the test with T47D, 40.2 µM (inactive); in the test with HCT-116, 21.4 µM (inactive). In addition, the GI50 in the test on MDA-N is > 100 µM (inactive); in the test on COLO 205 it was 52.8 µM (inactive); in the test with CAKI-1 it was 25.1 µM (inactive); in the test on M14 it was > 100 µM (inactive).
As to `C=CCOC(=O)CC[N+]1=CCC(c2ccccc2)(c2ccccc2)O1`, the GI50 with SK-OV-3, in the test on UO-31, in the test on A549, in the test with OVCAR-5, in the test with OVCAR-3 and in the test with SF-268 was > 100 µM (inactive) in each case. The GI50 in the test on OVCAR-8, in the test on HCC 2998, with MDA-MB-231, in the test with PC-3, in the test on DU-145 and in the test on T47D was > 100 µM (inactive) throughout. In addition, the GI50 in the test with HCT-116, in the test with MDA-N, in the test with COLO 205, with SN12C, in the test with CAKI-1 and in the test with M14 was > 100 µM (inactive) throughout.
`CC(C)(C)C(=O)OC(N)/C=C/c1ccccc1` (configuration not stated): the GI50 with SK-OV-3, in the test on UO-31, in the test with A549, with OVCAR-5, in the test on OVCAR-3 and with OVCAR-8 was > 100 µM (inactive) each time. Also, the GI50 with HCC 2998, in the test with MDA-MB-231, in the test with PC-3, in the test on NCI/ADR-RES, in the test on T47D and with Malme-3M was > 100 µM (inactive) in each case. In addition, the GI50 with HCT-116, with MDA-N, in the test with COLO 205, with SN12C, in the test on CAKI-1 and in the test with M14 was > 100 µM (inactive) throughout.
`CCOC(=O)N1CCC2C(=C(C)C(C)C3=C2C(=O)c2ccccc2C3=O)C1` (configuration not stated): the GI50 in the test with SK-OV-3 was > 10 µM (inactive); in the test with A549 it was 4.3 µM (inactive); in the test on SF-268, > 10 µM (inactive); in the test on OVCAR-8 it was 6.18 µM (inactive); with HCC 2998 it was 5.19 µM (inactive); in the test with MDA-MB-231, 4.07 µM (inactive). For the same compound, the GI50 was 4.4 µM (inactive) in the test with PC-3; 2.45 µM (inactive) in the test on DU-145; 9.55 µM (inactive) in the test on T47D; 1.82 µM (inactive) in the test with Malme-3M; 3.33 µM (inactive) with MDA-N; 3.33 µM (inactive) in the test on COLO 205. The GI50 is 3.86 µM (inactive) with SN12C, 4.73 µM (inactive) in the test with CAKI-1 and 4.73 µM (inactive) in the test with M14.
As for `CO[C@H]1C[C@H](n2cc(C)c(=O)[nH]c2=O)O[C@@H]1CO`, the GI50 in the test with SK-OV-3, in the test on UO-31, in the test with A549, with OVCAR-5, with OVCAR-3 and in the test with SF-268 was > 100 µM (inactive) each time. Further, the GI50 with OVCAR-8, with HCC 2998, in the test on MDA-MB-231, with PC-3, with NCI/ADR-RES and in the test on DU-145 was > 100 µM (inactive) each time. Moreover, the GI50 with Malme-3M, with HCT-116, with MDA-N, in the test on COLO 205, in the test with SN12C and in the test on CAKI-1 was > 100 µM (inactive) each time. Moreover, in the test on M14, the GI50 was > 100 µM (inactive).
